As usually defined, the EC50 is the concentration at which the effect is half-maximal.

Like-named read-outs stand apart in the source and are kept apart here.

Results on 13 molecules are retold here after US8053435B2, “Naphthalenyloxypropenyl derivatives having inhibitory activity against histone deacetylase and pharmaceutical composition comprising the same” (Korea Research Institute of Chemical Technology, priority 2006, dated 2011).

In test [1] the test system is HDAC. Put plainly: Inhibitory activity against HDAC (BIOMOL Quantizyme Assay system, Fluor de Lys substrate). It counts as biochemical. The conditions noted are these: HeLa nuclear extract as source of HDAC enzymes, enzyme reaction 1 hr. The protocol: HDAC activity was analyzed using BIOMOL Quantizyme™ Assay system which comprised two steps of 1) enzyme reaction between HDAC and a substrate and 2) determination of the level of HDAC inhibitory activity.
(§1) 0.5 μl of HeLa nuclear organic layer (10 μM) (a source of HDAC enzymes) was then added thereto to a final concentration of 100 nM. The enzyme reaction was carried out for 1 hr.
Subsequently, in step 2), 2 μM tricostatin A was added to 50 μl of Flour de Lys™ developer, followed by allowing the mixture to react at room temperature for 15 minutes. The light excited at 355 nm and emitted at 460 nm from the fluorophore was measured with a fluorometric plate reader. The intensity of the fluorescence increases as the enzyme activity is higher. The HDAC inhibitory activity of each of the test compounds was determined and compared with that of the control.
0.5 μl of HeLa nuclear organic layer (10 μM) (a source of HDAC enzymes) was then added thereto to a final concentration of 100 nM, The enzyme reaction was carried out for 1 hr.
as §1, §1

Test [2] concerns colon cancer cells HCT116. Put plainly: Inhibitory activity against proliferation of cancer cells, SRB (Sulforhodamine B) analysis. The note with it: read-out: Inhibitory conc. against cancer cell growth (EC50 μM) HCT116. It counts as cell-based. As to the method:
Cancer cells were inoculated into a 96-well microplate at a concentration of 1×10^3˜3×10^3 cells/well and incubated under the condition of 37° C., 5% CO2 for 24 hrs. After the incubation was completed, 0.2, 1, 5, 25, or 100 μM of each of the compounds of Examples was added to the plate, and then the reactant was incubated for 48 hrs. After the substrate was stained with SRB, the anti-cancer activity was determined by comparing the amount of protein in the cells treated with the compound of Examples with that of protein in untreated cells.
Specifically, after the incubation was completed, the culture medium was removed from each well, and the cells were washed 3 times with PBS (pH 7.4). Then, a solution of 50% trichloroacetic acid (TCA) was added to each well in an amount of 50 μl/well at 4° C. for 1 hr to fix them. Then, the microplate was washed 5 times with distilled water and dried in air. […]
50 μl of a staining solution prepared by dissolving 0.4% SRB in 1% acetic acid was added to the wells, and the microplate was kept at room temperature for 1 hr. The well plate was then washed 5 times with 1% acetic acid to remove unbound SRB and dried in air. The stained cells were treated with 150 μl/well of 10 mM Tris-HCl solution (pH 10.5) to elute SRB from the cells, and the absorbance of the cells treated with the compounds of examples at 540 nm was measured, based on the absorbance of an untreated cell. The EC50 value representing inhibition of the cancer cell growth by the extent of 50% was calculated from the measured absorbance, and the results are shown in Table 6.

Setting [3] is: Table 7, formula (4) series, read-out: HDAC Inhibitory conc. (IC50, μM/ml).
The mark [4] stands for this setting: Homo sapiens, HCT-116, Table 8, 48 hrs incubation with compound.
Where [5] appears, read: Table 5, formula (3) series, read-out: Inhibitory conc. (IC50, μM/ml).
Setting [6] is: Homo sapiens, HCT-116, Table 6, 48 hrs incubation with compound.
The mark [7] stands for this setting: Table 3, formula (2) series, read-out: IC50 (HDAC inhibitory concentration).
Where [8] appears, read: Homo sapiens, HCT-116, Table 4, 48 hrs incubation with compound.

Regarding `COCC(C)NC(=O)/C(=C/c1ccc(C(=O)NO)cc1)COc1cccc2ccccc12` (centres unmarked) [Example 1-6, (E)-4-(3-(1-Methoxypropan-2-ylamino)-2-((naphthalen-1-yloxy)methyl)-3-oxoprop-1-enyl)-N-hydroxybenzamide], the IC50 in test [1] (Table 1, formula (1) series, read-out: IC50 (HDAC inhibitory concentration)) came out at 0.023 µM. Further, in test [2] (Homo sapiens, HCT-116, Table 2, 48 hrs incubation with compound), the EC50 was 0.63 µM.

Turning to `CCN1CCC(NC/C(=C/c2ccc(C(=O)NO)cc2)COc2cccc3ccccc23)C1` (centres unmarked) [Example 4-2, (Z)-4-(3-(1-ethylpyrrolidin-3-ylamino)-2-((naphthalen-1-yloxy)methyl)prop-1-enyl)-N-hydroxybenzamide], the IC50 in test [1] (setting [3]) turned out to be 0.017 µM. The EC50 in test [2] (setting [4]) came out at 0.8 µM.

`O=C(NO)c1ccc(/C=C(/CNCCCn2ccnc2)COc2cccc3ccccc23)cc1` [Example 4-16, (Z)-4-(3-(3-(1H-imidazol-1-yl)propylamino)-2-((naphthalen-1-yloxy)methyl)prop-1-enyl)-N-hydroxybenzamide]: in test [1] (setting [3]), the IC50 was determined as 0.003 µM. Further, the EC50 in test [2] (setting [4]) was found to be 0.7 µM.

As for `COc1ccc(CCNC/C(=C/c2ccc(C(=O)NO)cc2)COc2cccc3ccccc23)cc1` [Example 4-23, (Z)—N-hydroxy-4-(3-(4-methoxyphenethylamino)-2-((naphthalen-1-yloxy)methyl)prop-1-enyl)-benzamide], the IC50 in test [1] (setting [3]) was found to be 0.04 µM. Moreover, the EC50 in test [2] (setting [4]) was 0.8 µM.

Turning to `O=C(NO)c1ccc(/C=C(/CNC2CCN(C3CC3)CC2)COc2cccc3ccccc23)cc1` [Example 4-10, (Z)-4-(3-(1-cyclopropylpiperidin-4-ylamino)-2-((naphthalen-1-yloxy)methyl)prop-1-enyl)-N-hydroxybenzamide], the IC50 in test [1] (setting [3]) was 0.011 µM. Further, the EC50 in test [2] (setting [4]) was 0.5 µM.

For the molecule `O=C(CCCC/C=C(/CNCCN1CCCC1)COc1cccc2ccccc12)NO` [Example 3-8, (Z)—N-Hydroxy-8-(naphthalen-1-yloxy)-7-((2-(pyrrolidin-1-yl)ethylamino)methyl)oct-6-enamide], the IC50 in test [1] (setting [5]) amounted to 0.005 µM. Further, the EC50 in test [2] (setting [6]) turned out to be 0.5 µM.

As for `O=C(NO)c1ccc(/C=C(/CNCCc2ccc(O)cc2)COc2cccc3ccccc23)cc1` [Example 4-17, (Z)—N-hydroxy-4-(3-(4-hydroxyphenethylamino)-2-((naphthalen-1-yloxy)methyl)prop-1-enyl)-benzamide], the IC50 in test [1] (setting [3]) worked out at 0.003 µM. For the same molecule, in test [2] (setting [4]), the EC50 is under 0.2 µM.

Take `O=C(CCCC/C=C(\COc1cccc2ccccc12)C(=O)NCc1ccco1)NO` [Example 2-11, (E)-N1-(Furan-2-ylmethyl)-N8-hydroxy-2-((naphthalen-1-yloxy)methyl)-2-octenediamide]: the IC50 in test [1] (setting [7]) stood at 0.006 µM. Further, in test [2] (setting [8]), the EC50 was found to be 0.6 µM.

Regarding `O=C(CCCC/C=C(/CNCCN1CCOCC1)COc1cccc2ccccc12)NO` [Example 3-1, (Z)—N-hydroxy-8-(2-morpholinoethylamino)-7-((naphthalen-1-yloxy)methyl)oct-6-enamide], the IC50 in test [1] (setting [5]) was found to be 0.002 µM. Besides, the EC50 in test [2] (setting [6]) is 0.2 µM.

As to “(Z)-8-(4-Fluorophenethylamino)-N-hydroxy-7-((naphthalen-1-yloxy)methyl)oct-enamide [Example 3-9]”, the IC50 in test [1] (setting [5]) amounted to 0.003 µM. Further, in test [2] (Table 6, 48 hrs incubation with compound), the EC50 was determined as 0.4 µM.

As to `CC(C)N1CCC(NC(=O)/C(=C/CCCCC(=O)NO)COc2cccc3ccccc23)C1` (centres unmarked) [Example 2-21, (E)-N8-Hydroxy-N1-(1-isopropylpyrrolidin-3-yl)-2-((naphthalen-1-yloxy)methyl)-2-octenediamide], the IC50 in test [1] (setting [7]) was 0.012 µM. Also, the EC50 in test [2] (setting [8]) was 1 µM.

For the molecule `COCCNC(=O)/C(=C/CCCCC(=O)NO)COc1cccc2ccccc12` [Example 2-13, (E)-N8-Hydroxy-N1-(2-methoxyethyl)-2-((naphthalen-1-yloxy)methyl)-2-octenediamide], the IC50 in test [1] (setting [7]) worked out at 0.024 µM. The EC50 in test [2] (setting [8]) is 0.6 µM.

As for `CN(C)CC(C)(C)CNC/C(=C/c1ccc(C(=O)NO)cc1)COc1cccc2ccccc12` [Example 4-18, (Z)-4-(3-(3-(dimethylamino)-2,2-dimethylpropylamino)-2-((naphthalen-1-yloxy)methyl)prop-1-enyl)-N-hydroxybenzamide], the IC50 in test [1] (setting [3]) was 0.006 µM. For the same molecule, the EC50 in test [2] (setting [4]) was found to be 0.31 µM.
